Laboratory results taken from patent publication US20250381256A1 (priority 2022, published 2025).
Entries after “also recorded” stand apart in the source; their conditions may differ. Square brackets hold non-standard residues; d marks the D form. Ends that are not written are not given here. Cha = N[C@@H](CC1CCCCC1)C(=O)O

Key:
[1] = system: gut microbiome; assay: Microbiome analysis of fecal pellets (16S rRNA sequencing); assay type: in vivo, C57BL/6 mice
Description: Microbiome Analysis. Fecal pellets were collected from mice and immediately frozen on dry ice prior to storage at −80° C. Samples were submitted to the Duke Center for Genomic and Computational Biology Microbiome Shared Resource core for microbiome analyses. In brief, the Duke Microbiome Core Facility (MCF) extracted DNA using the Qiagen PowerSoilPro DNA Kit (Qiagen, 47014). Bacterial community composition in isolated DNA samples was characterized by amplification of the V4 variable region of the 16S rRNA gene by polymerase chain reaction using the forward primer 515 and reverse primer 806 following the Earth Microbiome Project protocol (http://www.earthmicrobiome.org/). These primers (515F and 806R) carry unique barcodes that allow for multiplexed sequencing. Concentration of the PCR products were accessed using a Qubit dsDNA HS assay kit (ThermoFisher, Q32854) and a Promega GloMax plate reader. Equimolar 16S rRNA PCR products from all samples were pooled prior to sequencing, which was performed by the Duke Sequencing and Genomic Technologies (SGT) shared resource on an Illumina MiSeq instrument configured for 250 base-pair paired-end sequencing runs.
Sequences were analyzed using QIIME2 software. Demultiplexed forward reads were assigned a cut off between 10-230 bp and reverse reads were assigned a cut off between 10-160 bp. […]

[2] = system: CFT073 uropathogenic E. coli; assay: Transurethral infection model with CFT073; settings: 5×10^7 CFU CFT073, vs control OVA vaccine
Description: Bacterial Culture and Challenge Model. The uropathogenic E. coli strain CFT073 was purchased from ATCC (700928); this strain was originally isolated from a pyelonephritis patient. CFT073 was cultured at 37° C. with aeration in Luria broth (10 g/L tryptone, 5 g/L yeast extract, 10 g/L sodium chloride) at a 1:100 dilution from a starter culture.
For the transurethral infection model, water supply was removed from cages for one hour prior to infection to allow for voiding of bladder. Mice were sedated with an i.p. injection of a ketamine/xylazine cocktail and a sterilized plastic needle dabbed in surgical lubricant was used to deliver 5×10^7 CFU of CFT073 into the urethra. Mice were monitored as for the bacteremia model, but with sacrifice at 48 h.

[3] = system: OVA323-339; assay: Anti-OVA antibody responses after sublingual nanofiber immunization of mice; assay type: in vivo
[4] = system: 1:1:1 mixture of plreA, plutA, and plroN; assay: Urinary antibody ELISA on undiluted urine of immunized mice; settings: one nanofiber and three nanofiber groups combined
Description: Animals and Immunizations. […] Murine immunizations were initiated with female C57BL/6 mice (Envigo) aged 9-12 weeks. For sublingual immunizations, mice were deeply anesthetized by a cocktail delivering 100 mg/kg ketamine and 10 mg/kg xylazine. For droplet immunizations, a micropipette with a 20 μL tip was used to apply 8 μL of the immunizing solution below the tongue. For tablet immunizations, the tablet was placed below the tongue of anesthetized mice using tweezers. For droplet and tablet immunizations, the mouse's heads were placed in anteflexion for 20 min following administration to prevent swallowing of the material.
Measurement of Antibody Responses. Serum was collected via the submandibular vein. For analysis of epitope-specific IgG by ELISA, plates were coated with 20 μg/mL of streptavidin (Millipore Sigma, 189730) overnight at 4° C. Plates were washed with 0.5 g/L Tween-20 in PBS (1×PBST), coated for 1 hour with 20 μg/mL biotinylated plreA, pluta, or plroN, and blocked with Super Block Blocking Buffer (Thermo Scientific, 37515). […] Sera diluted in PBST-BSA or undiluted urine were added to the plate, and antigen-specific IgG was detected by horseradish peroxidase (HRP) conjugated Fcγ fragment specific goat anti-mouse IgG (Jackson Immuno Research, 15-035-071). […]

[5] = biological target: T1, I-Ab (Mus musculus, UniProt P14434+P14483); settings: haplotype of C57BL/6 mice; read-out: Reported affinity for I-Ab; cited from earlier work
T1 sequence (P14434 24-256): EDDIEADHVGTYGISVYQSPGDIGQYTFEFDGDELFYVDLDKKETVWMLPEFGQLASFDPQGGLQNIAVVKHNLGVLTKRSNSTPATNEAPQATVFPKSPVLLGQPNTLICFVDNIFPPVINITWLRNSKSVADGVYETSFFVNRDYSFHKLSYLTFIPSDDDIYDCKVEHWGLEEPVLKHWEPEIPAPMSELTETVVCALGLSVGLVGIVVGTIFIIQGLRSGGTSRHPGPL
T1 sequence (P14483 28-265): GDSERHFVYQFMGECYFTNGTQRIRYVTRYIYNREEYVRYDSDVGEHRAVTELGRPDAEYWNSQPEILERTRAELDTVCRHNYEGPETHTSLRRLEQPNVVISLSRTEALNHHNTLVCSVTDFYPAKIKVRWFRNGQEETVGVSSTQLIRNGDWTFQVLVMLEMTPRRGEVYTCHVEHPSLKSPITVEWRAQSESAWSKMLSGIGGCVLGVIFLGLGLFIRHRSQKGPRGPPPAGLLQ

[6] = Nanofiber structure after freeze-drying, tabletization and dissolution (atomic force microscopy); assay type: physicochemical; settings: various levels of cryoprotectant sugars
Description: FIG. 16. SIMPL tablets incorporating Coil29-based nanofibers. Top panel: epitope-containing peptide nanofibers were assembled in buffer, then cryoprotectant sugars were added, and tablets were formed by freeze drying. Bottom panel: Tablets were stable enough for handling (left), and Coil29 nanofibers retained their structure after freeze-drying, tabletization, and dissolution (images by atomic force microscopy).

C[C@@H]1O[C@@H]1P(=O)(O)O [Fosfomycin]
OTU richness of the microbiome ([1]; week 13 (vaccine) or week 13.5 (after 3 daily doses of 1000 mg/kg Fosfomycin)): drastically reduced
Shannon diversity index (α-diversity) ([1]; week 13 (vaccine) or week 13.5 (antibiotic)): highly significantly different from these groups
Body temperature after transurethral challenge [2]: maintained significantly higher temperatures than mice given the control vaccine

Nc1ncnc2c1ncn2[C@@H]1O[C@@H]2COP(=O)(O)O[C@H]3[C@@H](O)[C@H](n4cnc5c(N)ncnc54)O[C@@H]3COP(=O)(O)O[C@H]2[C@H]1O [cyclic-di-AMP]
Serum IgG titers at reduced adjuvant dose ([3]; 1 μg c-di-AMP with 8 μL of 5 mM OVA-Coil29, sublingual): equivalent titers to 10 times that dose; also recorded: sufficient to raise strong titers
Epitope-specific IgA levels in the urine, adjuvant comparison ([4]; cyclic-di-AMP vs CTB (p=0.038)): significantly higher epitope-specific IgA levels in the urine than CTB
Epitope-specific IgG levels in the urine, adjuvant comparison ([4]; cyclic-di-AMP vs CTB (p=0.38)): did not differ significantly

PADRE ([dA]K[Cha]VAAWTLKA[dA]) [aKXVAAWTLKAa]
Kd [5]: 0.094 µM

QARILEADAEILRAYARILEAHAEILRAQ (Ac-QARILEADAEILRAYARILEAHAEILRAQ-NH2) [Coil29]
Sublingual immunogenicity after tabletization ([3]; SIMPL tablets, range of peptide and cryoprotectant sugar concentrations, 10 μg c-di-AMP): sublingually immunogenic
Sublingual immunogenicity ([3]; mouse models, Coil29 nanofibers, liquid formulations): did not depend on PASylation for immunogenicity
Nanofibrillar structure in tablets [6]: retained their nanofibrillar structure

QLVFNSISARALKAY [VAC]
Kd [5]: 0.0135 µM
